Starred links: 1 amine or outer side, 2 acyl side, 3 side chain; linkers in the order of their positions; H or OH if unused. Positions of bridges follow the written chain, without caps; N, C: chain ends. Non-standard residues stand in square brackets, D forms with d. Residues, ends and D or L forms follow the SMILES beside them. Hexanoyl(3S-OH,4R-NH2,5-Me) = CC(C)[C@@H](N[*:1])[C@@H](O)CC(=O)[*:2]; NMeY = CN[C@@H](Cc1ccc(O)cc1)C(=O)O; NMeF = CN[C@@H](Cc1ccccc1)C(=O)O; dNMeL = CN[C@H](CC(C)C)C(=O)O; Hiv = CC(C)[C@H](O)C(=O)O; Lac = C[C@H](O)C(=O)O
Experiments:
PANC1 = assay: SRB colorimetric cell growth inhibition assay, PANC1; settings: SRB, 48 hours exposure; for TGI / CC50: PANC1 cells; for TGI: total growth inhibition; for GI50: PANC1 pancreatic carcinoma cells; for CC50: read-out: LC50, cell killing
Method: (§1) This form of assay employs 96 well cell culture microplates of […] diameter (Faircloth, 1988; Mosmann, 1983). Most of the cell lines are obtained from American Type Culture Collection (ATCC) derived from different human cancer types.
(§2) Cells are maintained in RPMI 1640 10% FBS, supplemented with 0.1 g/l penicillin and 0.1 g/l streptomycin sulfate and then incubated at 37° C., 5% CO2 and 98% humidity. For the experiments, cells were harvested from subconfluent cultures using trypsin and resuspended in fresh medium before plating.
(§3) Cells are seeded in 96 well microtiter plates, at 5×10^3 cells per well in aliquots of 195 μl medium, and they are allowed to attach to the plate surface by growing in drug free medium for 18 hours. Afterward, samples are added in aliquots of 5 μl in a ranging from 10 to 10-8 μg/ml, dissolved in DMSO/EtOH/PBS (0.5:0.5:99). After 48 hours exposure, the antitumor effect are measured by the SRB methodology: cells are fixed by adding 50 μl of cold 50% (wt/vol) trichloroacetic acid (TCA) and incubated for 60 minutes at 4° C.
(§4) Plates are washed with deionised water and dried. One hundred μl of SRB solution (0.4% wt/vol in 1% acetic acid) is added to each microtiter well and incubated for 10 minutes at room temperature. Unbound SRB is removed by washing with 1% acetic acid. Plates are air dried and bound stain is solubilized with Tris buffer. Optical densities are read on a automated spectrophotometric plate reader at a single wavelength of 490 nm.
(§5) The values for mean+/−SD of data from triplicate wells are calculated.
(§6) Some parameters for cellular responses can be calculated: GI=growth inhibition, TGI=total growth inhibition (cytostatic effect) and LC=cell killing (cytotoxic effect).

LN-caP = assay: SRB colorimetric cell growth inhibition assay, LN-caP; settings: SRB, 48 hours exposure; for TGI / CC50: LN-caP cells; for TGI: total growth inhibition; for GI50: LN-caP prostate adenocarcinoma cells; for CC50: read-out: LC50, cell killing
Method: as §1, §2, §3, §4, §5, §6

A549 = assay: SRB colorimetric cell growth inhibition assay, A549; settings: SRB, 48 hours exposure; for TGI / CC50: A549 cells; for TGI: total growth inhibition; for GI50: A549 lung carcinoma cells; for CC50: read-out: LC50, cell killing
Method: as §1, §2, §3, §4, §5, §6

IGROV-ET = assay: SRB colorimetric cell growth inhibition assay, IGROV-ET; settings: SRB, 48 hours exposure; for GI50: IGROV-ET (ET-743 resistant) ovary cells; for TGI / CC50: IGROV-ET cells; for TGI: total growth inhibition; for CC50: read-out: LC50, cell killing
Method: as §1, §2, §3, §4, §5, §6

HELA = assay: SRB colorimetric cell growth inhibition assay, HELA; settings: SRB, 48 hours exposure; for TGI / CC50: HELA cells; for TGI: total growth inhibition; for GI50: HELA cervix carcinoma cells; for CC50: read-out: LC50, cell killing
Method: as §1, §2, §3, §4, §5, §6

IGROV = assay: SRB colorimetric cell growth inhibition assay, IGROV; settings: SRB, 48 hours exposure; for TGI / CC50: IGROV cells; for TGI: total growth inhibition; for GI50: IGROV ovary adenocarcinoma cells; for CC50: read-out: LC50, cell killing
Method: as §1, §2, §3, §4, §5, §6

HELA-APL = assay: SRB colorimetric cell growth inhibition assay, HELA-APL; settings: SRB, 48 hours exposure; for GI50: HELA-APL (aplidine resistant) cervix cells; for TGI / CC50: HELA-APL cells; for TGI: total growth inhibition; for CC50: read-out: LC50, cell killing
Method: as §1, §2, §3, §4, §5, §6

DU145 = assay: SRB colorimetric cell growth inhibition assay, DU145; settings: SRB, 48 hours exposure; for TGI / CC50: DU145 cells; for TGI: total growth inhibition; for GI50: DU145 prostate carcinoma cells; for CC50: read-out: LC50, cell killing
Method: as §1, §2, §3, §4, §5, §6

HT29 = assay: SRB colorimetric cell growth inhibition assay, HT29; settings: SRB, 48 hours exposure; for TGI / CC50: HT29 cells; for TGI: total growth inhibition; for GI50: HT29 colon adenocarcinoma cells; for CC50: read-out: LC50, cell killing
Method: as §1, §2, §3, §4, §5, §6

LOVO-DOX = assay: SRB colorimetric cell growth inhibition assay, LOVO-DOX; settings: SRB, 48 hours exposure; for GI50: LOVO-DOX (MDR) colon adenocarcinoma cells; for TGI / CC50: LOVO-DOX cells; for TGI: total growth inhibition; for CC50: read-out: LC50, cell killing
Method: as §1, §2, §3, §4, §5, §6

SK-MEL-28 = assay: SRB colorimetric cell growth inhibition assay, SK-MEL-28; settings: SRB, 48 hours exposure; for GI50: SK-MEL-28 (MEL-28) melanoma cells; for TGI / CC50: SK-MEL-28 cells; for TGI: total growth inhibition; for CC50: read-out: LC50, cell killing
Method: as §1, §2, §3, §4, §5, §6

K562 = assay: SRB colorimetric cell growth inhibition assay, K562; settings: K562 cells, SRB, 48 hours exposure; for TGI: total growth inhibition; for CC50: read-out: LC50, cell killing
Method: as §1, §2, §3, §4, §5, §6

LOVO = assay: SRB colorimetric cell growth inhibition assay, LOVO; settings: SRB, 48 hours exposure; for TGI / CC50: LOVO cells; for TGI: total growth inhibition; for GI50: LOVO colon adenocarcinoma cells; for CC50: read-out: LC50, cell killing
Method: as §1, §2, §3, §4, §5, §6

SK-BR3 = assay: SRB colorimetric cell growth inhibition assay, SK-BR3; settings: SRB, 48 hours exposure; for GI50: SK-BR3 breast adenocarcinoma cells; for TGI / CC50: SK-BR3 cells; for TGI: total growth inhibition; for CC50: read-out: LC50, cell killing
Method: as §1, §2, §3, §4, §5, §6

`CC(C)C[C@@H]1NC(=O)[C@H](C(C)C)OC(=O)C[C@H](O)[C@@H](C(C)C)NC(=O)[C@@H](NC(=O)[C@@H](CC(C)C)N(C)C(=O)[C@@H]2CCCN2C(=O)[C@H](C)O)[C@@H](C)OC(=O)[C@H](Cc2ccccc2)N(C)C(=O)[C@@H]2CCCN2C1=O` [Phe^5 tamandarin B, [N-MePhe^5]-Tamandarin B] (H-[Lac]P[dNMeL]T[Hexanoyl(3S-OH,4R-NH2,5-Me)][Hiv]LP[NMeF]; ester 4-C) gave a TGI (PANC1) of 3.28E−08 Molar, a GI50 (PANC1) of 3.81 nM and a CC50 (PANC1) of 9.88 µM. It also gave a TGI (LN-caP) of 8.32E−09 Molar, a GI50 (LN-caP) of 1.52 nM and a CC50 (LN-caP) of 101 nM. It also gave a TGI (A549) of 3.90E−08 Molar, a GI50 (A549) of 4.56 nM and a CC50 (A549) of 935 nM. It also gave a GI50 (IGROV-ET) of 215 nM, a TGI (IGROV-ET) of 7.88E−07 Molar and a CC50 (IGROV-ET) of 6.35 µM. It also gave a TGI (HELA) of 4.61E−09 Molar, a GI50 (HELA) of 1.17 nM and a CC50 (HELA) of 55.5 nM. It also gave a TGI (IGROV) of 1.28E−08 Molar, a GI50 (IGROV) of 2.49 nM and a CC50 (IGROV) of 124 nM. It also gave a GI50 (HELA-APL) of 44.5 nM, a TGI (HELA-APL) of 4.23E−07 Molar and a CC50 (HELA-APL) of 9.88 µM. The TGI (DU145) was 1.02E−08 Molar, the GI50 (DU145) was 2.37 nM and the CC50 (DU145) was 268 nM. The TGI (HT29) was 7.89E−08 Molar, the GI50 (HT29) was 4.77 nM and the CC50 (HT29) was 9.88 µM. It also gave a GI50 (LOVO-DOX) of 358 nM, a TGI (LOVO-DOX) of 1.97E−06 Molar and a CC50 (LOVO-DOX) of 9.88 µM. For the same compound, the GI50 (SK-MEL-28) was 2.74 nM, the TGI (SK-MEL-28) was 1.88E−08 Molar and the CC50 (SK-MEL-28) was 205 nM. The GI50 (K562) was 23.2 nM, the TGI (K562) was 9.88E−07 Molar and the CC50 (K562) was 9.88 µM. For the same compound, the TGI (LOVO) was 8.81E−08 Molar, the GI50 (LOVO) was 26.1 nM and the CC50 (LOVO) was 5.22 µM. It also gave a GI50 (SK-BR3) of 0.658 nM, a TGI (SK-BR3) of 4.49E−09 Molar and a CC50 (SK-BR3) of 312 nM.

Compound `COc1ccc(C[C@H]2C(=O)O[C@H](C)[C@H](NC(=O)[C@@H](CC(C)C)N(C)C(=O)[C@@H]3CCCN3C(=O)[C@H](C)O)C(=O)N[C@H](C(C)C)[C@@H](O)CC(=O)O[C@@H](C(C)C)C(=O)N[C@@H](CC(C)C)C(=O)N3CCC[C@H]3C(=O)N2C)cc1` [tamandarin B, Tamandarin B, reference compound] (H-[Lac]P[dNMeL]T[Hexanoyl(3S-OH,4R-NH2,5-Me)][Hiv]LP[NMeY](Me); ester 4-C) has a TGI (PANC1) of 5.69E−08 Molar, a GI50 (PANC1) of 14 nM and a CC50 (PANC1) of 0.413 µM. The TGI (LN-caP) was 2.13E−08 Molar, the GI50 (LN-caP) was 5.84 nM and the CC50 (LN-caP) was 142 nM. The TGI (A549) was 4.01E−08 Molar, the GI50 (A549) was 7.62 nM and the CC50 (A549) was 766 nM. For the same compound, the GI50 (IGROV-ET) was 173 nM, the TGI (IGROV-ET) was 2.04E−06 Molar and the CC50 (IGROV-ET) was 9.59 µM. For the same compound, the TGI (HELA) was 1.76E−08 Molar, the GI50 (HELA) was 3.9 nM and the CC50 (HELA) was 120 nM. The TGI (IGROV) was 2.91E−08 Molar, the GI50 (IGROV) was 7.31 nM and the CC50 (IGROV) was 133 nM. The GI50 (HELA-APL) was 59.7 nM, the TGI (HELA-APL) was 1.16E−06 Molar and the CC50 (HELA-APL) was 9.59 µM. The TGI (DU145) was 2.41E−08 Molar, the GI50 (DU145) was 7.08 nM and the CC50 (DU145) was 79.7 nM. The TGI (HT29) was 4.32E−08 Molar, the GI50 (HT29) was 6.32 nM and the CC50 (HT29) was 9.59 µM. For the same compound, the GI50 (LOVO-DOX) was 1250 nM, the TGI (LOVO-DOX) was 9.59E−06 Molar and the CC50 (LOVO-DOX) was 9.59 µM. The GI50 (SK-MEL-28) was 3.03 nM, the TGI (SK-MEL-28) was 1.19E−08 Molar and the CC50 (SK-MEL-28) was 119 nM. The GI50 (K562) was 8.47 nM, the TGI (K562) was 2.63E−08 Molar and the CC50 (K562) was 0.0782 µM. The TGI (LOVO) was 1.61E−07 Molar, the GI50 (LOVO) was 30.5 nM and the CC50 (LOVO) was 9.59 µM. It also gave a GI50 (SK-BR3) of 5.44 nM, a TGI (SK-BR3) of 2.49E−08 Molar and a CC50 (SK-BR3) of 236 nM.
